Assay results published in PubChem BioAssay AID248 (DTP/NCI, 2004).
Values joined by “and” are separate entries in the source; they are usually repeats but may differ in a detail not shown here. Equal values may be shown once. Toxic doses and inconclusive results are not listed. Rule as the data show it: active = T/C of 150% or more; inactive = T/C below 125%.

Test system: L1210 leukemia ip in BDF1 mice, survival T/C
Test: NCI In Vivo Anticancer Drug Screen. Data for tumor model L1210 Leukemia (intraperitoneal) in B6D2F1 (BDF1) mice
Settings: endpoint: mean survival time, higher = longer survival
Summary of the method: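 Value reflects the ratio of survival in compound-treated mice to survival in vehicle-treated controls, with both groups carrying the same transplanted tumor.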

[1] = dose: 100.0 mg/kg/injection, schedule: Q01DX001 (ip), vehicle: carboxymethylcellulose (CMC)
[2] = dose: 200.0 mg/kg/injection, schedule: Q01DX001 (ip), vehicle: carboxymethylcellulose (CMC)
[3] = dose: 400.0 mg/kg/injection, schedule: Q01DX001 (ip), vehicle: carboxymethylcellulose (CMC)

Measured: T/C

CC(=O)Nc1ccc(Cc2cc(=O)[nH]c(=O)[nH]2)cc1
inactive: dose: 9.38 mg/kg/injection, schedule: Q01DX001 (ip), vehicle: saline with Tween-80 106 % of control | dose: 18.75 mg/kg/injection, schedule: Q01DX001 (ip), vehicle: saline with Tween-80 96 % of control | dose: 37.5 mg/kg/injection, schedule: Q01DX001 (ip), vehicle: saline with Tween-80 104 % of control

CNC(=S)N(C)C
inactive: dose: 100.0 mg/kg/injection, schedule: Q04DX003 (ip), vehicle: saline sonified 114 % of control | dose: 200.0 mg/kg/injection, schedule: Q04DX003 (ip), vehicle: saline sonified 103 % of control | dose: 400.0 mg/kg/injection, schedule: Q04DX003 (ip), vehicle: saline sonified 103 % of control

CCOC(=O)NC1=C(NCCCl)C(=O)C(NC(=O)OCC)=C(NCCCl)C1=O
inactive: dose: 6.25 mg/kg/injection, schedule: Q04DX003 (ip), vehicle: saline 92 % of control | dose: 12.5 mg/kg/injection, schedule: Q04DX003 (ip), vehicle: saline 95 % of control | dose: 25.0 mg/kg/injection, schedule: Q04DX003 (ip), vehicle: saline 106 % of control | dose: 50.0 mg/kg/injection, schedule: Q04DX003 (ip), vehicle: saline 104 % of control | dose: 100.0 mg/kg/injection, schedule: Q04DX003 (ip), vehicle: saline 90 % of control

C=CCc1cc(OC)cc(C(=O)c2cccc(OC)c2C#N)c1OC
inactive: dose: 100.0 mg/kg/injection, schedule: Q01DX001 (ip), vehicle: other 104 % of control and 106 % of control | dose: 100.0 mg/kg/injection, schedule: Q04DX002 (ip), vehicle: other 104 % of control | dose: 100.0 mg/kg/injection, schedule: Q04DX003 (ip), vehicle: other 100 % of control and 92 % of control | dose: 200.0 mg/kg/injection, schedule: Q01DX001 (ip), vehicle: other 95 % of control and 107 % of control | dose: 200.0 mg/kg/injection, schedule: Q04DX002 (ip), vehicle: other 100 % of control and 92 % of control | dose: 200.0 mg/kg/injection, schedule: Q04DX003 (ip), vehicle: other 100 % of control and 92 % of control | dose: 400.0 mg/kg/injection, schedule: Q01DX001 (ip), vehicle: other 118 % of control and 90 % of control | dose: 400.0 mg/kg/injection, schedule: Q04DX002 (ip), vehicle: other 88 % of control and 89 % of control | dose: 400.0 mg/kg/injection, schedule: Q04DX003 (ip), vehicle: other 102 % of control and 92 % of control

CCOC(=O)NCC1(c2ccccc2)CCNCC1
inactive: dose: 20.0 mg/kg/injection, schedule: Q04DX003 (ip), vehicle: Klucel (hydroxypropylcellulose) (HPC) 102 % of control | dose: 40.0 mg/kg/injection, schedule: Q04DX003 (ip), vehicle: Klucel (hydroxypropylcellulose) (HPC) 102 % of control | dose: 80.0 mg/kg/injection, schedule: Q04DX003 (ip), vehicle: Klucel (hydroxypropylcellulose) (HPC) 102 % of control

COc1ccc(C=O)cc1OCCOc1cc(C=O)ccc1OC
inactive: dose: 50.0 mg/kg/injection, schedule: Q01DX009 (ip), vehicle: Klucel (hydroxypropylcellulose) (HPC) 91 % of control | dose: 100.0 mg/kg/injection, schedule: Q01DX009 (ip), vehicle: Klucel (hydroxypropylcellulose) (HPC) 108 % of control | dose: 200.0 mg/kg/injection, schedule: Q01DX009 (ip), vehicle: Klucel (hydroxypropylcellulose) (HPC) 94 % of control

Cc1c([N+](=O)[O-])cc(C(C)(C)C)c(O)c1[N+](=O)[O-]
inactive: dose: 6.25 mg/kg/injection, schedule: Q01DX009 (ip), vehicle: saline with Tween-80 95 % of control | dose: 12.5 mg/kg/injection, schedule: Q01DX009 (ip), vehicle: saline with Tween-80 91 % of control | dose: 12.5 mg/kg/injection, schedule: Q04DX002 (ip), vehicle: Klucel (hydroxypropylcellulose) (HPC) 110 % of control | dose: 25.0 mg/kg/injection, schedule: Q04DX002 (ip), vehicle: Klucel (hydroxypropylcellulose) (HPC) 112 % of control | dose: 25.0 mg/kg/injection, schedule: Q04DX002 (ip), vehicle: saline with Tween-80 89 % of control

CCOC(=O)C(c1ccsc1)C(C(=O)OCC)c1cccs1 (configuration not stated)
inactive: dose: 100.0 mg/kg/injection, schedule: Q01DX001 (ip), vehicle: saline with Tween-80 92 % of control | dose: 200.0 mg/kg/injection, schedule: Q01DX001 (ip), vehicle: saline with Tween-80 98 % of control | dose: 400.0 mg/kg/injection, schedule: Q01DX001 (ip), vehicle: saline with Tween-80 92 % of control

O=C(CCC(=O)c1ccc(Br)cc1)c1ccc(Br)cc1
inactive: dose: 50.0 mg/kg/injection, schedule: Q01DX001 (ip), vehicle: carboxymethylcellulose (CMC) 92 % of control | [1] 97 % of control | [2] 103 % of control | [3] 90 % of control

O=NN1CCCNCC1
inactive: dose: 25.0 mg/kg/injection, schedule: Q01DX009 (ip), vehicle: water 104 % of control | dose: 50.0 mg/kg/injection, schedule: Q01DX009 (ip), vehicle: water 111 % of control | dose: 100.0 mg/kg/injection, schedule: Q01DX009 (ip), vehicle: water 106 % of control | dose: 200.0 mg/kg/injection, schedule: Q01DX009 (ip), vehicle: water 101 % of control | dose: 400.0 mg/kg/injection, schedule: Q01DX009 (ip), vehicle: water 112 % of control

COc1ccccc1NC(=S)N(C)C
inactive: dose: 100.0 mg/kg/injection, schedule: Q04DX003 (ip), vehicle: saline with Tween-80 96 % of control | dose: 200.0 mg/kg/injection, schedule: Q04DX003 (ip), vehicle: saline with Tween-80 93 % of control

CCOC(=O)c1ccc(NC(=O)c2ccc(F)cc2)cc1
inactive: [1] 97 % of control and 105 % of control | dose: 100.0 mg/kg/injection, schedule: Q01DX009 (ip), vehicle: carboxymethylcellulose (CMC) 103 % of control and 105 % of control | dose: 100.0 mg/kg/injection, schedule: Q04DX002 (ip), vehicle: carboxymethylcellulose (CMC) 96 % of control and 97 % of control | dose: 100.0 mg/kg/injection, schedule: Q04DX003 (ip), vehicle: carboxymethylcellulose (CMC) 94 % of control and 98 % of control | [2] 101 % of control and 91 % of control | dose: 200.0 mg/kg/injection, schedule: Q01DX009 (ip), vehicle: carboxymethylcellulose (CMC) 94 % of control and 91 % of control | dose: 200.0 mg/kg/injection, schedule: Q04DX002 (ip), vehicle: carboxymethylcellulose (CMC) 97 % of control and 100 % of control | dose: 200.0 mg/kg/injection, schedule: Q04DX003 (ip), vehicle: carboxymethylcellulose (CMC) 95 % of control and 91 % of control | [3] 96 % of control and 90 % of control | dose: 400.0 mg/kg/injection, schedule: Q01DX009 (ip), vehicle: carboxymethylcellulose (CMC) 93 % of control and 106 % of control | dose: 400.0 mg/kg/injection, schedule: Q04DX002 (ip), vehicle: carboxymethylcellulose (CMC) 92 % of control and 90 % of control | dose: 400.0 mg/kg/injection, schedule: Q04DX003 (ip), vehicle: carboxymethylcellulose (CMC) 100 % of control and 91 % of control

CCCCCCCCC/C(=N\N=C(N)N)c1ccccc1
inactive: dose: 15.0 mg/kg/injection, schedule: Q01DX Z (ip), vehicle: methylcellulose (MC) 94 % of control | dose: 30.0 mg/kg/injection, schedule: Q01DX Z (ip), vehicle: methylcellulose (MC) 96 % of control | dose: 50.0 mg/kg/injection, schedule: Q01DX Z (oral), vehicle: methylcellulose (MC) 89 % of control | dose: 60.0 mg/kg/injection, schedule: Q01DX Z (ip), vehicle: methylcellulose (MC) 90 % of control | dose: 60.0 mg/kg/injection, schedule: Q01DX Z (oral), vehicle: methylcellulose (MC) 102 % of control | dose: 120.0 mg/kg/injection, schedule: Q01DX Z (ip), vehicle: methylcellulose (MC) 108 % of control | dose: 120.0 mg/kg/injection, schedule: Q01DX Z (oral), vehicle: methylcellulose (MC) 98 % of control | dose: 240.0 mg/kg/injection, schedule: Q01DX Z (ip), vehicle: methylcellulose (MC) 96 % of control | dose: 400.0 mg/kg/injection, schedule: Q01DX Z (oral), vehicle: methylcellulose (MC) 89 % of control | dose: 480.0 mg/kg/injection, schedule: Q01DX Z (ip), vehicle: methylcellulose (MC) 113 % of control | dose: 1000.0 mg/kg/injection, schedule: Q01DX Z (ip), vehicle: methylcellulose (MC) 87 % of control | dose: 1500.0 mg/kg/injection, schedule: Q01DX Z (ip), vehicle: methylcellulose (MC) 100 % of control

NN=C1c2ccccc2C(F)(F)c2ccccc21
inactive: dose: 50.0 mg/kg/injection, schedule: Q01DX001 (ip), vehicle: Klucel (hydroxypropylcellulose) (HPC) 95 % of control | dose: 100.0 mg/kg/injection, schedule: Q01DX001 (ip), vehicle: Klucel (hydroxypropylcellulose) (HPC) 95 % of control

Cc1c2ccccc2[n+](C)c2ccc3ccccc3c12
inactive: dose: 75.0 mg/kg/injection, schedule: Q01DX001 (ip), vehicle: carboxymethylcellulose (CMC) 94 % of control | dose: 150.0 mg/kg/injection, schedule: Q01DX001 (ip), vehicle: carboxymethylcellulose (CMC) 94 % of control | dose: 300.0 mg/kg/injection, schedule: Q01DX001 (ip), vehicle: carboxymethylcellulose (CMC) 96 % of control

COc1ccc(CCOC(C)=O)cc1
inactive: dose: 100.0 mg/kg/injection, schedule: Q04DX002 (ip), vehicle: saline 97 % of control | dose: 200.0 mg/kg/injection, schedule: Q04DX002 (ip), vehicle: saline 102 % of control | dose: 400.0 mg/kg/injection, schedule: Q04DX002 (ip), vehicle: saline 102 % of control
